According to PMC8110578, “Phenylethynylbenzyl-modified biguanides inhibit pancreatic cancer tumor growth” (Scientific Reports, 2021):
Read-outs that look alike come from different tables or passages of the source.

Experiments:
[1] = Safranin O assay, membrane potential of EYPC liposomes; settings: 5 mM (50 mol% relative to 10 mM EYPC)
Method: (§1) Figure 2 (A) Partition of compounds in an U-tube experiment. Concentration of biguanide on the trans-side of the U-tube at 48 h and 72 h at 25 °C, after addition of 250 µM of biguanide on the cis-side. (B) Variation in the internal pH of HPTS-containing EYPC liposomes. Intravesicular solution: 1 mM HPTS, 10 mM HEPES, and 100 mM NaCl, adjusted to pH = 7.4, and extravesicular solution: 10 mM HEPES and 100 mM NaCl, adjusted to pH = 7.4. Biguanidiums were injected after 50 s at 5 mM (50 mol% relative to the 10 mM EYPC concentration), a NaOH pulse was induced at 300 s, and the liposomes were lysed with Triton-X at 550 s. Each curve is the average of three independent measurements. (C) Fluorescence of safranin O in the EYPC liposomes. Biguanidium salts were injected at 5 mM (50 mol% relative to the 10 mM EYPC concentration) at 50 s. Each curve is the average of three independent measurements. […] Mitochondrial isolation was performed according to the previously reported protocol.

AH375 cells = experiment: Tumor sphere formation, AH375 cells; type: cell-based, mouse; settings: 24 h treatment
[2] = HPTS assay, internal pH of EYPC liposomes; settings: 5 mM (50 mol% relative to 10 mM EYPC), NaOH pulse at 300 s
Method: as §1

KP4 cells [3] = experiment: Seahorse analysis of OCR and ECAR, KP4 cells; type: cell-based, human; settings: 1b 15 µM; for Effect on ECAR (extracellular acidification rate): metformin; for Effect on oxygen consumption rate (OCR): metformin 5 mM
From the text: Figure 3 Effects of biguanides on cell proliferation and viability in pancreatic cancer cells. […]. […] | decimal sign comma or point
Next, we used the Seahorse analyser to quantify the ability of compound 1b to affect oxygen consumption rate (OCR) in KP4 cells. […]. […] […].
(§2) All chemicals were purchased from Aldrich Chemicals in their highest purity and used without further purification. Deuterated dimethylsulfoxide (DMSO-d^6) and deuterated chloroform (CDCl3) were purchased from CDN Isotopes. NMR spectra were recorded on Bruker advance 400 and 100 spectrometers. Coupling constants are given in hertz (Hz) and chemical shifts are given in parts per million (ppm, δ) measured relative to the residual solvent (the multiplicity of the signals are given as s: singlet, d: doublet, t: triplet, and m: multiplet). High-resolution mass spectra (HRMS) were recorded on a TSQ Quantum Ultra (Thermo Scientific) triple quadrupole with accurate mass option instrument (Université de Montréal Mass Spectrometry Facility). MS experiences were performed using an UltrafleXtreme MALDI TOF/TOF mass spectrometer equipped with a SmartBeam II Nd:Yag/355 nm laser operating at 1 kHz and providing a laser focus down to 20 μm in diameter (Bruker Daltonics, Billerica, MA). The data acquisition for MS was performed in positive ion mode using the linear geometry with flexControl 3.4 (Bruker Daltonics, Billerica, MA). Acceleration voltage was set to + 25 kV and all other instrumental parameters (delayed extraction parameters, source voltages, detector gain, laser energy, etc.) were optimized for maximum S/N for the drug compounds. L-α-Phosphatidylcholine was purchased from Avanti Polar Lipids. Transport and depolarization studies as well as absorbance measurements were performed on a Varian Cary Eclipse fluorescence spectrophotometer. The hemolysis assays were performed on a Fluostar Optima plate reader. Single crystals of C18H18F3N5O3S were obtained from chloroform. A suitable crystal was selected and analysed on a Bruker Venture Metaljet diffractometer. Crystal violet retention assay was used for cell growth assays and IC50 were determined using Prism (GraphPad). NAD/NADH quantitation colorimetric kit (#K337-100) from Biovision was used according to manufacturer’s instructions. ECAR (extracellular acidification rate) and OCR of KP4 cells (oxygen consumption rate) were measured on a Seahorse XF-24 (Agilent).
Experimental. ECAR (extracellular acidification rate) and OCR of KP4 cells (oxygen consumption rate) were measured on a Seahorse XF-24 (Agilent). The day before the experiment, KP4 cells were seeded in XF24 FluxPak seahorse plates (Agilent) at a density of 40.000 cells per well, in usual KP4 culture medium (DMEM, 10% FSB). […]

KP4 cells [4] = experiment: Growth assay (crystal violet), KP4 cells; type: cell-based, human; settings: for IC50: KP4 cells
Method: as §2
Experimental. KP4 (Riken RCB1005) and PSN1 (ATCC: CRM-CRL-3211), were cultured in Dulbecco's modified Eagle's medium (DMEM) (Wisent, St-Bruno, QC) supplemented with 10 % of fetal bovine serum (FBS) (Wisent). HPNE hTERT (ATCC: CRL1423) were cultured in a mix of 75% DMEM without glucose (Sigma Cat#. D-5030) with additional 2 mM L-glutamine and 1.5 g/L sodium bicarbonate, 25% Medium M3 Base (Incell Corp. Cat# M300F- 500), fetal bovine serum 5% (wisent 10 ng/ml human recombinant EGF (Sigma-Aldrich), 5.5 mM D-glucose (Sigma-Aldrich), 750 ng/ml puromycin (Sigma-Aldrich). For dose-response assays, cells were seeded in 96 well plates (company). After 24 h, treatments were applied and cells were grown for 3 more days. Crystal violet retention assay used for cell growth assays were described previously^2. The data is expressed as relative absorbance of crystal violet extracted from the cells and diluted in 10 % acetic acid. IC50 were determined using Prism (GraphPad). Tumor spheres were grew according to Ferbeyre et al^3.

Panc1 cells = experiment: Growth assay (crystal violet), Panc1 cells; type: cell-based; settings: Homo sapiens, PANC-1, 72 h
[5] = Homo sapiens, KP-4, 72 h, 72 hours, read-out: IC50

For N=C(N)NC(=N)NCc1ccc(C#Cc2ccccc2)cc1 [1b, 4-(phenylethynyl)benzylbiguanide], the “Membrane depolarization (Safranin-O fluorescence)” value [1] was “depolarization of the membrane”, the “Decrease of the number of AH375 spheres” value (AH375 cells; 5 µM) was 75% and the “Change of internal vesicular pH (HPTS)” value [2] was “basification of the internal vesicular pH”. The “Effect on ECAR (extracellular acidification rate)” value (KP4 cells [3]) was “also observed with compound 1b”, the “Effect on oxygen consumption rate (OCR)” value (KP4 cells [3]) was “inhibited OCR” and the IC50 (KP4 cells [4]; [5]) was 6.1 µM. The “IC50 fold lower than phenformin” value (KP4 cells [4]; KP4 and Panc1 cells) was 8–12 fold, the IC50 (KP4 cells [4]; 3 days treatment, crystal violet retention assay, read-out: IC50 KP4) was 6.13 µM and the “Fold more active than metformin” value (KP4 cells [4]; conclusion) was 1000 fold. For the same compound, the IC50 (Panc1 cells) was 15 µM.

In the case of CN(C)C(=N)NC(=N)N [metformin, 1,1-dimethylbiguanide, reference compound], the “Membrane depolarization (Safranin-O fluorescence)” value [1] is reported as “did not show this activity”, the “Decrease of the number of AH375 spheres” value (AH375 cells; 1 mM) is reported as 50% and the “Change of internal vesicular pH (HPTS)” value [2] is reported as “no membrane activity”. The “Effect on ECAR (extracellular acidification rate)” value (KP4 cells [3]) was “increase of the ECAR”, the “Effect on oxygen consumption rate (OCR)” value (KP4 cells [3]) was “Inhibition of OCR” and the IC50 (KP4 cells [4]; [5]) was roughly 5000 µM. For the same compound, the IC50 (Panc1 cells) was roughly 5000 µM.
